Experimental data reported in ChEMBL document CHEMBL4219030, “Progress in the discovery of small molecule modulators of the Cys-loop superfamily receptors” (Bioorg Med Chem Lett, 2017).

Assays:
[1] = target: T1, Serotonin 3 (5-HT3) receptor (Homo sapiens, UniProt O95264+P46098); assay: Displacement of [3H]granisetron from human 5-HT3AB receptor expressed in HEK293 cells by scintillation counting method; format: cell-based
T1 sequence (P46098 whole entry): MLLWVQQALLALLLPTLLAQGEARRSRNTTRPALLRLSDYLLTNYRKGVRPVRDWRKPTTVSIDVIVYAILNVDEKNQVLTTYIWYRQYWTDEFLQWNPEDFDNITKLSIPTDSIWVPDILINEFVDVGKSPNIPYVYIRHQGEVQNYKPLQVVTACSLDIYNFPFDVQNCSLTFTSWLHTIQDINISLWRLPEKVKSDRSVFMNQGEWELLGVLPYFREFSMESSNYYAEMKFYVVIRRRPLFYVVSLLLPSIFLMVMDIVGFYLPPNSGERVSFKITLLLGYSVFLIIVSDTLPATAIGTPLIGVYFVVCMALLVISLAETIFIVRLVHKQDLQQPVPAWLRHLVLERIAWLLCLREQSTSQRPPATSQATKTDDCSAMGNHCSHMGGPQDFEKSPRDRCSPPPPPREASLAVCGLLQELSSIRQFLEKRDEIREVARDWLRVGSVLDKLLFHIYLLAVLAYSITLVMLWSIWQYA
T1 sequence (O95264 whole entry): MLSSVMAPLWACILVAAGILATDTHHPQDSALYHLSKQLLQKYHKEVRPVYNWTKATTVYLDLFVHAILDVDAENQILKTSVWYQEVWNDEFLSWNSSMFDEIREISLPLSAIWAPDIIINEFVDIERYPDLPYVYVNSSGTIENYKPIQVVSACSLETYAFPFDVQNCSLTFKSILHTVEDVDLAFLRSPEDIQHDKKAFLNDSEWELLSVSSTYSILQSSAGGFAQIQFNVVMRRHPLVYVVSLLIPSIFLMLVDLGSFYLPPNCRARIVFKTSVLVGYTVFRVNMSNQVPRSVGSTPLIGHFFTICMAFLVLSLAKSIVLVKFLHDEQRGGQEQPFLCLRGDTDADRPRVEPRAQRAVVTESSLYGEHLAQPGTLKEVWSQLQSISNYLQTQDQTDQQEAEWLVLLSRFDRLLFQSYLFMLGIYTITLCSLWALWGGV

[2] = target: T2, 5-hydroxytryptamine receptor 3A (Homo sapiens, UniProt P46098); assay: Displacement of [3H]granisetron from human 5-HT3A receptor expressed in HEK293 cells by scintillation counting method; format: cell-based
T2 sequence (P46098 whole entry): T1 sequence (P46098 whole entry)

[3] = target: T2, 5-hydroxytryptamine receptor 3A; assay: Inhibition of recombinant human 5-HT3A receptor expressed in HEK293 cell membranes […] in presence of [3H]GR65630
[4] = target: Neuronal acetylcholine receptor subunit alpha-7 (Rattus norvegicus, UniProt Q05941); assay: Agonist activity at rat brain membrane alpha7 nAChR
[5] = target: Gamma-aminobutyric acid receptor subunit alpha-1/beta-2 (Rattus norvegicus) (UniProt P62813+P63138); settings: HEK293, 30 uM
Description: Positive allosteric modulation of recombinant rat GABAA receptor alpha1beta2 expressed in HEK293 cells assessed as increase in GABA-induced current at 30 uM at -100 mV holding potential measured for 1 to 2 secs for every 60 secs by whole cell patch-clamp method relative to GABA

[6] = target: T3, Glycine receptor subunit alpha-1 (Homo sapiens) (UniProt P23415); settings: HEK293, 30 uM
T3 sequence (whole entry): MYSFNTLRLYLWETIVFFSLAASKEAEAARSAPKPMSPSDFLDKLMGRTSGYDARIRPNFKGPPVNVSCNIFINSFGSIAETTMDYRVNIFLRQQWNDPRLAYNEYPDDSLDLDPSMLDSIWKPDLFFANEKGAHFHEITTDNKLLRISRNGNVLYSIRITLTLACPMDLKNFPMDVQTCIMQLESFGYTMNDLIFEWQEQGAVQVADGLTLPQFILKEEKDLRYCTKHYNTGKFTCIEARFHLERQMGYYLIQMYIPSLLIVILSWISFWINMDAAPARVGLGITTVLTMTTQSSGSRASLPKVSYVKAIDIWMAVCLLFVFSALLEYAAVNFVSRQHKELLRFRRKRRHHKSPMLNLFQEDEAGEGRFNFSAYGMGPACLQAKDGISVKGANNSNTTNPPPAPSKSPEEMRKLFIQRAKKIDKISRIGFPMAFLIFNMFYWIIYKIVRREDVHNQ
Description: Positive allosteric modulation of recombinant human glycine receptor alpha1 expressed in HEK293 cells assessed as increase in glycine-induced current at 30 uM at -60 mV holding potential measured for 1 to 2 secs for every 60 secs by whole cell patch-clamp method relative to glycine

[7] = target: Glycine receptor (Rattus norvegicus) (UniProt P22771+P24524+P07727+P20781); assay: Positive allosteric modulation of OFA rat embryonic ventral spinal cord neuron glycine receptor assessed as potentiation of glycine-induced chloride current at 1 to 10 uM by whole cell patch-clamp method relative to 10 uM glycine; format: protein-complex assay
[8] = target: T3, Glycine receptor subunit alpha-1 (Homo sapiens); assay: Positive allosteric modulation of human glycine receptor alpha1 expressed in HEK293 cells assessed as potentiation of glycine-induced current response at 10 uM measure for 3 to 6 secs by whole cell patch-clamp method relative to glycine; format: cell-based
[9] = target: T4, Glycine receptor alpha-3/beta (Homo sapiens, UniProt O75311+P48167); assay: Positive allosteric modulation of human glycine alpha3beta receptor expressed in HEK293T cells assessed as glycine-induced increase in current response after 18 to 24 hrs by membrane potential blue dye based FLIPR assay; format: cell-based
[10] = target: Glycine receptor (alpha-1/beta) (Homo sapiens, UniProt P23415+P48167); assay: Positive allosteric modulation of human glycine alpha1beta receptor expressed in HEK293T cells assessed as glycine-induced increase in current response after 18 to 24 hrs by membrane potential blue dye based FLIPR assay; format: cell-based
[11] = target: T5, Glycine receptor subunit alpha-1 (Homo sapiens, UniProt P23415); assay: Positive allosteric modulation of human glycine alpha1 receptor expressed in HEK293T cells assessed as glycine-induced increase incurrent response after 18 to 24 hrs by membrane potential blue dye based FLIPR assay; format: cell-based
T5 sequence (P23415 whole entry): T3 sequence (whole entry)

[12] = target: T4, Glycine receptor alpha-3/beta; assay: Positive allosteric modulation of human glycine alpha3beta receptor expressed in HEK293T cells assessed as potentiation of glycine-induced increase in current response after 18 to 24 hrs by membrane potential blue dye based FLIPR assay relative to glycine; format: cell-based
[13] = target: T2, 5-hydroxytryptamine receptor 3A; assay: Inhibition of human 5-HT3A receptor expressed in […] cells after 30 mins by Fluo-4-AM dye based FLIPR assay; format: cell-based
[14] = target: 5-hydroxytryptamine receptor 3A/3E (Homo sapiens, UniProt A5X5Y0+P46098); assay: Inhibition of human 5-HT3AE receptor expressed in […] cells after 30 mins by Fluo-4-AM dye based FLIPR assay; format: cell-based
[15] = target: 5-hydroxytryptamine receptor 3A/3C (Homo sapiens, UniProt P46098+Q8WXA8); assay: Inhibition of human 5-HT3AC receptor expressed in […] cells after 30 mins by Fluo-4-AM dye based FLIPR assay; format: cell-based
[16] = target: T1, Serotonin 3 (5-HT3) receptor; assay: Inhibition of human 5-HT3AB receptor expressed in […] cells after 30 mins by Fluo-4-AM dye based FLIPR assay; format: cell-based
[17] = target: T6, 5-hydroxytryptamine receptor 3A (Cavia porcellus, UniProt O70212); assay: Antagonist activity 5-HT3A receptor in guinea pig ileum assessed as inhibition of 2-methyl-5-HT induced response preincubated for 10 mins followed by agonist addition; settings: read-out: pA2 (converted)
T6 sequence (O70212 whole entry): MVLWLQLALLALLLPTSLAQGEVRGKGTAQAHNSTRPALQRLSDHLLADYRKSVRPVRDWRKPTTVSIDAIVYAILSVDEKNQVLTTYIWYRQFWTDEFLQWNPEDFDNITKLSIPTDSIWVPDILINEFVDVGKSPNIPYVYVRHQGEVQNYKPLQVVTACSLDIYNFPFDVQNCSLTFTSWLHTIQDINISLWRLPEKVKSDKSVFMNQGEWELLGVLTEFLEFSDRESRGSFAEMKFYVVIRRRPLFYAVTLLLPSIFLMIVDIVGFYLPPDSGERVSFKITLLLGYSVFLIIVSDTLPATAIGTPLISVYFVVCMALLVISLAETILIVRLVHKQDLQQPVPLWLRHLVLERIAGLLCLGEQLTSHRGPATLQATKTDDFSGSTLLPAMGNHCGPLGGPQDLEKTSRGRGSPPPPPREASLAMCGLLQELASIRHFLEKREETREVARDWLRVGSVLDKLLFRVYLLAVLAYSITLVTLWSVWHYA

Chain of Glycine receptor (Rattus norvegicus) (P07727 whole entry, looked up): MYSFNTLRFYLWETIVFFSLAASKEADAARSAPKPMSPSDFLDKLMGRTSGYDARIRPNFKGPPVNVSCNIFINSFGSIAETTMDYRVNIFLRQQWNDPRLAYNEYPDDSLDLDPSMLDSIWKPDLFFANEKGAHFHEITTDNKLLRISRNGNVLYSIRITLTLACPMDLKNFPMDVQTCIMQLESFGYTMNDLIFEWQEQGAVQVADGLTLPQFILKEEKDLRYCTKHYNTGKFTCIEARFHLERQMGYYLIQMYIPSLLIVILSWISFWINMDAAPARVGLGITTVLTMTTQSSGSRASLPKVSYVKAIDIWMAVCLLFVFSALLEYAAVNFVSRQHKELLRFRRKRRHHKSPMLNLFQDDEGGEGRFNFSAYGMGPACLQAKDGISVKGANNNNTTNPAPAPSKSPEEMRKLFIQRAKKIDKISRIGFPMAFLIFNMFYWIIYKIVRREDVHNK
Chain of Glycine receptor (Rattus norvegicus) (P20781 whole entry, looked up): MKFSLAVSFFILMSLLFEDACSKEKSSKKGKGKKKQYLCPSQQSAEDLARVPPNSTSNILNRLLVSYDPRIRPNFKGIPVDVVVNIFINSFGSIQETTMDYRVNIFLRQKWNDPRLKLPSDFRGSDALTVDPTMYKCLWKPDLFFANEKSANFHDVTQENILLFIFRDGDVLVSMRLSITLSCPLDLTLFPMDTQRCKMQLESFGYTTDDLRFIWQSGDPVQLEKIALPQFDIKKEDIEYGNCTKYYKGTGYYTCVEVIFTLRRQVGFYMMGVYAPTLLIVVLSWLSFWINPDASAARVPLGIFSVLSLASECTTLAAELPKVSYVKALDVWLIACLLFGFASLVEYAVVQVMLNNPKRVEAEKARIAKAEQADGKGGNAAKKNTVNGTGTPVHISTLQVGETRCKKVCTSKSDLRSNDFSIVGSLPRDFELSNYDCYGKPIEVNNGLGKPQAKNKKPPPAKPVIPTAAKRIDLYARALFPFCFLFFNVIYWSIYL
Chain of Glycine receptor (Rattus norvegicus) (P22771 whole entry, looked up): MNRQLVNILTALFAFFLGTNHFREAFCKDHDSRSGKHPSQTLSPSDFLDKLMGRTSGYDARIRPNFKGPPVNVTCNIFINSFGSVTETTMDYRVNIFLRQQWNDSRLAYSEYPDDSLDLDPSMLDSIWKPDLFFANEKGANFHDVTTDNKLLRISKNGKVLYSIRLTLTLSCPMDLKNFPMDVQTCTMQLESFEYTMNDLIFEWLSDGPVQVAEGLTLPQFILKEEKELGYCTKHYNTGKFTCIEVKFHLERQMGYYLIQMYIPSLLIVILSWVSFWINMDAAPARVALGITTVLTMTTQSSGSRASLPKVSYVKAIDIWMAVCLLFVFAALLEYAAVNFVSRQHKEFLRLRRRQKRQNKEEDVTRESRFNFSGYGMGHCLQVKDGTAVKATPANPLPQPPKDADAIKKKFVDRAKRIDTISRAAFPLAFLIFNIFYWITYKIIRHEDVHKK
Chain of Glycine receptor (Rattus norvegicus) (P24524 whole entry, looked up): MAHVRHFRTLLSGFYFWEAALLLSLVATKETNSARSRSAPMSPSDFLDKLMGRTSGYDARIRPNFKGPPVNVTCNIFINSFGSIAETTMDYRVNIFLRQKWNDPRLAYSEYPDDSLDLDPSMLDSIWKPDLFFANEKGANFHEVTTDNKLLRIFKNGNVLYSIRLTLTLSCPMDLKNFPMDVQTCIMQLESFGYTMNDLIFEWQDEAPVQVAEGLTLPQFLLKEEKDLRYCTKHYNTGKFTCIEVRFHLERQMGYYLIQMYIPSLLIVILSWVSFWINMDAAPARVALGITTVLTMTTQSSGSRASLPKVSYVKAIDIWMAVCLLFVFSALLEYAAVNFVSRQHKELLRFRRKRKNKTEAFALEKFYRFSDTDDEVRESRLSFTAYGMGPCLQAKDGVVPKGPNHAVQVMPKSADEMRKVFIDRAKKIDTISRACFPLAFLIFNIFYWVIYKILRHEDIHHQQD
Chain of Glycine receptor (alpha-1/beta) (P48167 whole entry, one chain of several): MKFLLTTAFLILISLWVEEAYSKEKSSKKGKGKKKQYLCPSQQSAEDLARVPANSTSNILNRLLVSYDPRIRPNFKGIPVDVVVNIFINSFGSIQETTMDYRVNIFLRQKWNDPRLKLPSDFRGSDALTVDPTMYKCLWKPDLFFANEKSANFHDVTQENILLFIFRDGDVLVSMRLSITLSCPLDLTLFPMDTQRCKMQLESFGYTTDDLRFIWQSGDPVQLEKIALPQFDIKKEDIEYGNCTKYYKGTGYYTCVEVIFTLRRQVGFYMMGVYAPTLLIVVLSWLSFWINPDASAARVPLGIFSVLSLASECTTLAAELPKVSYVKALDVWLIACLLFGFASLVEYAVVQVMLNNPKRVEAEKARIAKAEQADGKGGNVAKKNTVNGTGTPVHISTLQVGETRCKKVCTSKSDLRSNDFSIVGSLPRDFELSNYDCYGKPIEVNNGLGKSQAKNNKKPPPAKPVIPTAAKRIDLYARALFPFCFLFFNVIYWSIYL
Chain of Neuronal acetylcholine receptor subunit alpha-7 (Q05941 whole entry): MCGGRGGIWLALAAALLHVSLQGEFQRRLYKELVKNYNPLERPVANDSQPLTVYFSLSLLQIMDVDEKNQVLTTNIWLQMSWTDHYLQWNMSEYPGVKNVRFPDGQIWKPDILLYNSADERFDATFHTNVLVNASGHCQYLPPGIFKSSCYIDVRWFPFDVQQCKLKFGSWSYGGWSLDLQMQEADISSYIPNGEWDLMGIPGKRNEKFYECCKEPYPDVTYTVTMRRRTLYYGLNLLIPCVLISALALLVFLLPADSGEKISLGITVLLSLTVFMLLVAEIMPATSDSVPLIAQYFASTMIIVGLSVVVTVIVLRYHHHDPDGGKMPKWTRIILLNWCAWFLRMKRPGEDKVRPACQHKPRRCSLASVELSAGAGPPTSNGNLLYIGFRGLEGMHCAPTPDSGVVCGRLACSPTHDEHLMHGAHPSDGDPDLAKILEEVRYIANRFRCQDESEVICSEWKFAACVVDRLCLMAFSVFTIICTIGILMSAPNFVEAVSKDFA
Chain of 5-hydroxytryptamine receptor 3A/3E (A5X5Y0 whole entry, one chain of several): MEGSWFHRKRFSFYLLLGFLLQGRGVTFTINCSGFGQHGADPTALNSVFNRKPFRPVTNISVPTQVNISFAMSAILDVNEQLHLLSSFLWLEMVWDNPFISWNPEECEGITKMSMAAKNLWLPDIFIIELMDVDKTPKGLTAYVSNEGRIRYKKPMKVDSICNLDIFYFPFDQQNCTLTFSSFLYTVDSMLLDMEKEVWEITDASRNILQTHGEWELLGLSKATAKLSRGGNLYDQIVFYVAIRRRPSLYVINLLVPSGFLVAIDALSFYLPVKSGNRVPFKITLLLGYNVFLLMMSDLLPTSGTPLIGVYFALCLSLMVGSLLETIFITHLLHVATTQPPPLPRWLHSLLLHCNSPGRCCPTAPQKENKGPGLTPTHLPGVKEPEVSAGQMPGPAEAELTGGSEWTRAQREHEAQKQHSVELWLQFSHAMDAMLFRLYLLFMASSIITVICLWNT
Chain of 5-hydroxytryptamine receptor 3A/3C (Q8WXA8 whole entry, one chain of several): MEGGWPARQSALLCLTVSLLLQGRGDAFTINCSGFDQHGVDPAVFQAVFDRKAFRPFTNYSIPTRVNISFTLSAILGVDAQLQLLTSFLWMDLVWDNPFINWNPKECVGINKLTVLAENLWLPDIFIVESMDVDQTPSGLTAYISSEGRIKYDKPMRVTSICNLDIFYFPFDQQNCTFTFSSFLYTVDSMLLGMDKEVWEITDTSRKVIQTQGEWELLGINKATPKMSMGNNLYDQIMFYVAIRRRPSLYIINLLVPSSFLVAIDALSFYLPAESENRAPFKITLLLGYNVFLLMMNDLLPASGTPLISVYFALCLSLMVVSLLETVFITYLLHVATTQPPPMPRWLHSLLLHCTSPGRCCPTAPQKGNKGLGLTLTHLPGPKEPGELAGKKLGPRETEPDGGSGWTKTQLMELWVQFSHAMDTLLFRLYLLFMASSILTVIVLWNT
T4 sequence (O75311 whole entry): as the sequence (P24524 whole entry, looked up) above, with L11V, N32D, T372M, L381F, V398M, V399T, A406P, A414P, H461Q counted along it
T4 sequence (P48167 whole entry): as the sequence (P48167 whole entry, one chain of several) above

CN1CCN(c2nc3ccccc3nc2Cl)CC1
Ki [1]: 22 nM
Ki [2]: 0.04 nM

O=C(N[C@H]1CN2CCC1CC2)c1ccc2ncccc2c1
IC50 [3]: 150 nM
IC50 [4]: 10000 nM

CC(C)c1cccc(C(C)C)c1O
Emax [5]: 279%
Emax [6]: 189%

CN1[C@@H]2CC[C@H]1C[C@@H](NC(=O)c1nn(C)c3ccccc13)C2
fold change (FC) [7]: 1.73

CCCCCc1ccc2c(c1)OC(C)(C)[C@@H]1CCC(C)=C[C@@H]21
fold change (FC) [8]: 30

CN1C(=O)[C@@H]2CN(S(=O)(=O)c3ccc4occc4c3)C[C@@H]2c2cnccc21
EC50 [9]: 330 nM
EC50 [10]: 171 nM
EC50 [11]: 327 nM
fold change (FC) [12]: 16

c1ccc2c(CSc3[nH]cnc4ncnc3-4)cccc2c1
IC50 [13]: 620 nM
IC50 [14]: 710 nM
IC50 [15]: 840 nM
IC50 [16]: 430 nM

COc1nc2ccccc2nc1C(=O)Nc1ccc(C)cc1
Kb [17]: 50.1 nM
